ChEMBL document CHEMBL5030557, “Tandem Repeat of a Short Human Chemerin-Derived Peptide and Its Nontoxic d-Lysine-Containing Enantiomer Display Broad-Spectrum Antimicrobial and Antitubercular Activities” (J Med Chem, 2021)
≈ marks a conversion by molar mass, not a printed value. Calls of active or inactive are those of the source. The calls are words filed in the database; no cut-off is given here. Where a SMILES comes first, the peptide text is derived from it.

Key:
[1] = test system: Staphylococcus aureus; assay: Antimicrobial activity against Staphylococcus aureus ATCC 25923 assessed as inhibition of bacterial growth by broth dilution method; type: functional
[2] = test system: Klebsiella pneumoniae; assay: Antimicrobial activity against Klebsiella pneumoniae ATCC 27736 assessed as inhibition of bacterial growth by broth dilution method; type: functional
[3] = test system: Staphylococcus aureus; assay: Antimicrobial activity against multidrug-resistant Staphylococcus aureus ATCC BAA-44 assessed as inhibition of bacterial growth by broth dilution method; type: functional
[4] = test system: Pseudomonas aeruginosa; assay: Antimicrobial activity against Pseudomonas aeruginosa ATCC BAA-427 assessed as inhibition of bacterial growth by broth dilution method; type: functional
[5] = test system: Pseudomonas aeruginosa; assay: Antibacterial activity against Pseudomonas aeruginosa BAA 427 assessed as resistance development by measuring fold change in MIC after 30 passages with serially diluted peptides; type: functional
[6] = test system: Pseudomonas aeruginosa; assay: Antibacterial activity against Pseudomonas aeruginosa infected in Balb/c mouse stomach assessed as animal survival at 100 mg/kg, ip after 7 days; type: functional; details: 168 h, time 7 day
[7] = Retention time of the compound analysed by RP-HPLC analysis; type: physicochemical
[8] = test system: Staphylococcus aureus; assay: Antimicrobial activity against methicilin- resistant Staphylococcus aureus ATCC 33591 assessed as inhibition of bacterial growth by broth dilution method; type: functional
[9] = test system: Bacillus subtilis; assay: Antimicrobial activity against Bacillus subtilis ATCC 6633 assessed as inhibition of bacterial growth by broth dilution method; type: functional
[10] = test system: Escherichia coli; assay: Antimicrobial activity against Escherichia coli ATCC 25922 assessed as inhibition of bacterial growth by broth dilution method; type: functional
[11] = test system: Escherichia coli; assay: Antibacterial activity against Escherichia coli ATCC 25922 in presence of 10 percent fresh human serum measured after 1 hr; type: functional
[12] = Disruption of membrane integrity in human RBC cells assessed as membrane damage at 150 uM incubated for 15 min by Alexa fluor-annexin V staining based assay (reference value: 0%); type: functional, Red blood cell; details: 0.25 h
[13] = Hemolytic activity in human RBC measured after 40 mins; type: ADME, tissue-based, Erythrocyte; details: red blood cells (RBC)
[14] = test system: Escherichia coli; assay: Antibacterial activity against Escherichia coli ATCC 25922 in presence of 4.5 mM KCl measured after 1 hr; type: functional
[15] = test system: Escherichia coli; assay: Antibacterial activity against Escherichia coli ATCC 25922 in presence of temperature ranging from 4 to 90 degC measured after 1 hr; type: functional
[16] = test system: Cell membrane; assay: Induction of membrane damage in Escherichia coli assessed as disruption of membrane integrity at 10 uM incubated for 30 min by propidium iodide staining based assay
[17] = test system: Escherichia coli; assay: Antibacterial activity against Escherichia coli ATCC 25922 in presence of 150 mM NaCl measured after 1 hr; type: functional

SMILES | MIC [1] | MIC [2] | MIC [3] | MIC [4] | fold change (FC) [5] | Retention_time [7] | MIC [8] | MIC [9] | MIC [10] | other results
CCn1cc(C(=O)O)c(=O)c2cc(F)c(N3CCNCC3)cc21 [NORFLOXACIN] | 1.22 µM (≈ 0.39 µg/mL) | 0.15 µM (≈ 0.0479 µg/mL) | 2.44 µM (≈ 0.779 µg/mL) | 1.22 µM (≈ 0.39 µg/mL) |  |  |  |  |  | 
O=C(O)c1cn(C2CC2)c2cc(N3CCNCC3)c(F)cc2c1=O [CIPROFLOXACIN] |  |  |  |  | 64 |  |  |  |  | 
CN(C)[C@@H]1C(O)=C(C(N)=O)C(=O)[C@@]2(O)C(O)=C3C(=O)c4c(O)cccc4C(C)(O)[C@H]3C[C@@H]12 (stereo not given in full) |  |  |  |  | 16 |  |  |  |  | 
C[C@H]1COc2c(N3CCN(C)CC3)c(F)cc3c(=O)c(C(=O)O)cn1c23 [LEVOFLOXACIN] |  |  |  |  |  |  |  |  |  | survival at 100 mg/kg [6]: 100%
CC(C)C[C@H](NC(=O)[C@H](CCCNC(=N)N)NC(=O)CNC(=O)[C@H](CC(C)C)NC(=O)[C@@H](NC(=O)[C@@H](N)CCCCN)C(C)C)C(=O)N[C@H](C(N)=O)C(C)C (H-KVLGRLV-NH2) | > 100 µM | > 100 µM | > 100 µM | > 100 µM |  | 8.1 min | > 100 µM | > 100 µM | > 100 µM | 
CC(C)C[C@H](NC(=O)[C@H](CCCNC(=N)N)NC(=O)CNC(=O)[C@H](CC(C)C)NC(=O)[C@@H](NC(=O)[C@@H](CCCCN)NC(=O)[C@@H](NC(=O)[C@H](CC(C)C)NC(=O)[C@H](CCCNC(=N)N)NC(=O)CNC(=O)[C@H](CC(C)C)NC(=O)[C@@H](NC(=O)[C@H](N)CCCCN)C(C)C)C(C)C)C(C)C)C(=O)N[C@H](C(N)=O)C(C)C | 2 µM (≈ 3.1 µg/mL) | 4 µM (≈ 6.2 µg/mL) | 2 µM (≈ 3.1 µg/mL) | 4 µM (≈ 6.2 µg/mL) |  | 16.5 min | 2 µM (≈ 3.1 µg/mL) | 2 µM (≈ 3.1 µg/mL) | 1 µM (≈ 1.55 µg/mL) | MIC [11]: 2 µM; Activity [12]: 13.9%; HC50 at 40 min [13]: 1.93 mM; MIC [14]: 2 µM; MIC [15]: 2 µM; Activity [16]: Active; MIC [17]: 1 µM
